# Results from patent US5132291A, “Antivirals and methods for increasing the antiviral activity of AZT” (priority 1989, dated 1992).
# Where two headings read alike, the source gives them in different places.
# Assays:
# WI-L2 cells = assay: Lymphoblast assay, effects on cell growth, WI-L2 B-cell line; type: cell-based; conditions: AICA riboside alone, up to 500 μM
# Procedure: (§1) Several lymphoblast lines were utilized in conjunction with varying doses of antiviral agents to determine their effects on cell growth. In this method a daily cell count over a period of time, post-addition of antiviral compounds, can be compared with the normal cell growth curve.
# (§2) Two representative T-cell lines, SupT-1 and CEM, and a B-cell line, WI-L2, were grown to mid-log phase 5×10^5 cells/ml in 50 ml of RPMI 1640 (Irvine Scientific) supplemented with 10% heat-inactivated fetal calf serum (Gemini-Bioproducts) and 1% glutamine (Gibco) to standardize seeding conditions and to assure a population of logarithmically growing cells.
# (§3) An appropriate number cf T-25 flasks (Corning) were seeded with evenly suspended cells at 0.5×10^5 cells/ml in 20 ml of fresh growth media. Including a control condition, each set of flasks was treated with a dose range of antiviral compound for each cell line. Each dose condition was repeated in triplicate. All flasks were incubated for 5 days at 37° C. in a 5% CO2 incubator.
# (§4) Every 24 hours for 5 days, three 0.2 ml samples of each flask were diluted in 9.8 ml of isoton (Fisher Scientific) and counted on a cell counter (Coulter Co.). The average of each flask was recorded, and the average of each triplicate antiviral does was then averaged and recorded.
# [1] = system: Chinese hamster lung fibroblasts; conditions: cited from earlier work
# HIV = HIV syncitial forming assay using SupT-1 cells; type: cell-based; conditions: AICA riboside 5 μM-500 μM
# Procedure: The assay was performed following the procedure described in Example Three except that SupT-1 cells were used. Using the SupT-1 cells, the medium was not changed at day 5 post-infection and the syncitia were counted at day 5 post-infection at 40X. The results are plotted in FIGS. 5, 6(b), and 7.
# [2] = Lymphoblast assay, effects on cell growth, SupT-1 T-cell line; type: cell-based; conditions: human, supt-1 cells, AICA riboside alone, SUP T-1, read-out: reduction in T-cell growth
# Procedure: as §1, §2, §3, §4
# [3] = system: BAG vector pseudotyped by MA (amphotrophic murine leukemia virus); assay: U937/BAG+MA colony resistance assay titered on 208F rat fibroblasts; type: cell-based; conditions: 500 μM AICA riboside
# Procedure: A second, similar assay system was utilized in which a human macrophage line (U937) carrying the BAG retroviral vector construct (having neomycin resistance and beta-galactosidase marker genes), Cepko, PNAS, Vol. 84, p. 156-160 (1987), was infected with MA (amphotrophic MLV [murine leukemia virus]). MA was used to pseudotype the replication-defective BAG vector, which was then titered on 208F cells. According to this assay, the results of which are shown in FIG. 1c, 0.01 μM AZT and 500 μM AICA riboside were both effective against murine retroviruses. […]
# In this colony-forming bioassay for the characterization of antiviral compounds against retroviruses, a replication-defective retroviral vector construct having the ability to confer neomycin-resistance (U937/BAG or N2) is psuedotyped, infects a single cell, and under neomycin selection, allows the recipient cell to form a colony. Since each infection yields a neomycin-resistant cell capable of producing a discrete group of cells, colonies can be counted, resulting in a linear relationship between the number of colonies and the first order of virus concentration. […]
# After drying, the plates were stained with 2 ml of 1:20 Glemsa (Sigma) for 1 hour. […] All colonies containing 50 or more cells were scored.
smiles,measurement,setting,value
"NC(=O)c1ncn([C@@H]2O[C@H](CO)[C@@H](O)[C@H]2O)c1N [AICA riboside, 5-amino-1-β-D-ribofuranosyl-imidazole-4-carboxamide]",effect on WI-L2 (B-cell) growth,WI-L2 cells,no effect
same,expansion of the purine pool (ATP and GTP),[1]; 50 μM and 200 μM,about 40%
same,growth rate,"[1]; 50 μM and 200 μM, reversible by uridine",reduced growth rate
same,"drop in PRPP availability, measured by adenine incorporation",[1]; 50 μM,18%
same,"drop in PRPP availability, measured by adenine incorporation",[1]; 200 μM,82%
same,effect on cell growth,"[1]; 200 μM, reversed by uridine",arrested cell growth
same,cytotoxicity,[1]; 700 μM,no cytotoxicty
same,UTP and CTP pools,[1],decreased by a factor of approximately ten
same,effectiveness against the AIDS virus (prevention of syncitial formation),HIV,less than 100%
same,inhibition at 500 µM,[2],30 to 50%
same,effectiveness against murine retroviruses,[3],effective
